Patent US20230265151A1, “GIP/GLP1 CO-AGONIST COMPOUNDS” (priority 2020, published 2023)
Read-outs that look alike come from different tables or passages of the source.

Experiments:
[1] = biological target: T1, human GIP receptor (hGIPR) (Homo sapiens, UniProt P48546); assay: [125I]-GIP binding, SPA with membranes of CHO cells expressing hGIPR
T1 construct: expressed in transfected cells; crude membranes
T1 sequence (P48546 22-466): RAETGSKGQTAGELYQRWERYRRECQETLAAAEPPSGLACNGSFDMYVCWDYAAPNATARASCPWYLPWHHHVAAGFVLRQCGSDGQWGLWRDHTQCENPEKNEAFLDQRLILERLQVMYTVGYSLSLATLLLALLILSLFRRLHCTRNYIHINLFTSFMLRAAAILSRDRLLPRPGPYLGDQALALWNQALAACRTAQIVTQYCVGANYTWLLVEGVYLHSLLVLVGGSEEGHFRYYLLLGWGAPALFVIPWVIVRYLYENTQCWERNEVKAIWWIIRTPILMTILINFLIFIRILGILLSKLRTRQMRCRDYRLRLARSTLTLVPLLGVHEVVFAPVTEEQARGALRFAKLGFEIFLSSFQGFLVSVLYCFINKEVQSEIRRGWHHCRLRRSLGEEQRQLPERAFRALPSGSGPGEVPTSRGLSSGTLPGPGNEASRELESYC

hGIPR = biological target: T2, hGIPR (Homo sapiens, UniProt P48546); assay: Functional cAMP formation (HTRF) in HEK-293 clonal cells expressing hGIPR, 0.1% bovine casein, without or with 1.0% human serum albumin; format: cell-based; settings: for Emax: percent of maximal response to GIP(1-42)NH2; for EC50: cAMP
T2 construct: expressed in transfected cells
T2 sequence (P48546 22-466): T1 sequence (P48546 22-466)
Outline: (§1)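 Cells were stimulated with peptide for 30 min at 37° C, then lysed in buffer carrying cAMP-d2 and anti-cAMP Eu3+-cryptate for a competitive HTRF read after at least 60 min at room temperature. The 665/620 nm ratio was converted to nM cAMP against a standard curve.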

hGCGR = biological target: T3, hGCGR (Homo sapiens, UniProt P47871); assay: Functional cAMP formation (HTRF) in HEK-293 clonal cells expressing hGCGR, 0.1% bovine casein, without or with 1.0% human serum albumin; format: cell-based; settings: cAMP, 37° C.
T3 construct: expressed in transfected cells
T3 sequence (P47871 26-477): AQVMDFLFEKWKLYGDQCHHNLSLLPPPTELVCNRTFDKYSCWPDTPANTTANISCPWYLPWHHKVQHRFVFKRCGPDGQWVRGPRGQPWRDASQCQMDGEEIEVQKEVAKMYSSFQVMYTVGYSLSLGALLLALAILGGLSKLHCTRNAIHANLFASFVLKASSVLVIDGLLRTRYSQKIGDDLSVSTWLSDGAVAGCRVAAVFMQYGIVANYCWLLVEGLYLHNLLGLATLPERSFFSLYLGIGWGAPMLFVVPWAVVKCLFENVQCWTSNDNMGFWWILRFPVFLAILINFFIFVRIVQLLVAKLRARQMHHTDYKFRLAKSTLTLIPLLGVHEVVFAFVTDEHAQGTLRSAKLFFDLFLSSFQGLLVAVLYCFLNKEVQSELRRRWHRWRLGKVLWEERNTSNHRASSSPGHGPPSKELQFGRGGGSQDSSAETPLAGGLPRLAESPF
Outline: as §1

hGLP-1R = hGLP-1R (Homo sapiens, UniProt P43220); assay: Functional cAMP formation (HTRF) in HEK-293 clonal cells expressing hGLP-1R, 0.1% bovine casein, without or with 1.0% human serum albumin; format: cell-based; parameters: expressed in transfected cells; settings: for EC50: cAMP; for Emax: percent of maximal response to GLP-1(7-36)NH2
Chain of hGLP-1R (P43220 24-463): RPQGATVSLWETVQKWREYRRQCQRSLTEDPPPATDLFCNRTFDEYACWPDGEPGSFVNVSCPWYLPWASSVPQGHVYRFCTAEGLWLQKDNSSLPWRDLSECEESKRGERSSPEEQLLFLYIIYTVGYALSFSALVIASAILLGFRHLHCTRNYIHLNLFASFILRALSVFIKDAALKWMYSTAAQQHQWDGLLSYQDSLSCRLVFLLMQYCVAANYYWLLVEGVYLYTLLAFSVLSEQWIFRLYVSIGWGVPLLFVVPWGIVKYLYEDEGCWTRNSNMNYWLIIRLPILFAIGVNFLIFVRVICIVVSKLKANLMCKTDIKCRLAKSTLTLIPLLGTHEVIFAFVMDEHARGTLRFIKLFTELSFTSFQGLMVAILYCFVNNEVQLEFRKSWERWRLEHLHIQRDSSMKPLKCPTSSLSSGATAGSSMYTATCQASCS
Outline: as §1

[2] = HEK293, read-out: hGIPR Emax, % ± SEM, cAMP, 37° C., 0.1% bovine casein and 1.0% human serum albumin
[3] = HEK293, read-out: hGIPR Emax, % ± SEM, cAMP, 37° C., 0.1% bovine casein, arithmetic mean
[4] = hGIPR EC50, nM (SEM, n), 37° C., 0.1% bovine casein (no human serum albumin), geometric mean
[5] = hGCGR EC50, nM (SEM, n), 0.1% bovine casein (no human serum albumin), geometric mean
[6] = hGCGR EC50, nM (SEM, n), 0.1% bovine casein and 1.0% human serum albumin, geometric mean (SEM, n)
[7] = hGLP-1R EC50, nM (SEM, n), 37° C., 0.1% bovine casein (no human serum albumin), geometric mean

SMILES	Ki [1] [nM]	Emax (hGIPR; [2]) [%]	Emax (hGIPR; [3]) [%]	EC50 (hGIPR; [4]) [nM]	EC50 (hGCGR; [5]) [nM]	EC50 (hGCGR; [6]) [nM]	EC50 (hGLP-1R; [7]) [nM]	Emax (hGLP-1R; HEK293, read-out: hGLP-1R Emax, % ± SEM, cAMP, 37° C., 0.1% bovine casein and 1.0% human serum albumin) [%]	Emax (hGLP-1R; HEK293, read-out: hGLP-1R Emax, % ± SEM, cAMP, 37° C., 0.1% bovine casein, arithmetic mean) [%]	EC50 (hGLP-1R; hGLP-1R EC50, nM (SEM, n), 37° C., 0.1% bovine casein and 1.0% human serum albumin, geometric mean (SEM, n)) [nM]	Ki ([1]; human GIPR, geometric mean (SEM, n), read-out: Binding Affinity Ki, nM (SEM, n) hGIPR) [nM]	Emax (hGIPR; HEK293, cAMP, 37° C., 0.1% bovine casein and 1.0% human serum albumin, read-out: hGIPR Emax, % ± SEM) [%]	Emax (hGIPR; HEK293, cAMP, 37° C., 0.1% bovine casein, arithmetic mean, read-out: hGIPR Emax, % ± SEM) [%]	EC50 (hGIPR; 37° C., 0.1% bovine casein (no human serum albumin), geometric mean, read-out: hGIPR EC50, nM (SEM, n)) [nM]	EC50 (hGIPR; 37° C., 0.1% bovine casein and 1.0% human serum albumin, geometric mean (SEM, n), read-out: hGIPR EC50, nM (SEM, n)) [nM]	EC50 (hGCGR; 0.1% bovine casein (no human serum albumin), geometric mean, read-out: hGCGR EC50, nM (SEM, n)) [nM]	EC50 (hGCGR; 0.1% bovine casein and 1.0% human serum albumin, geometric mean (SEM, n), read-out: hGCGR EC50, nM (SEM, n)) [nM]	Emax (hGLP-1R; HEK293, cAMP, 37° C., 0.1% bovine casein, arithmetic mean, read-out: hGLP-1R Emax, % ± SEM) [%]	EC50 (hGLP-1R; 37° C., 0.1% bovine casein (no human serum albumin), geometric mean, read-out: hGLP-1R EC50, nM (SEM, n)) [nM]
CC[C@H](C)[C@H](NC(=O)[C@H](CC(C)C)NC(=O)[C@](C)(Cc1ccc(O)cc1)NC(=O)[C@H](CCCCNC(=O)COCCOCCNC(=O)COCCOCCNC(=O)CC[C@H](NC(=O)CCCCCCCCCOc1ccc(C(=O)O)cc1)C(=O)O)NC(=O)[C@@H](NC(=O)[C@H](Cc1ccccc1)NC(=O)[C@H](CCC(=O)O)NC(=O)C(C)(C)NC(=O)[C@H](CCC(N)=O)NC(=O)[C@H](C)NC(=O)[C@H](CCC(N)=O)NC(=O)[C@H](CCCN)NC(=O)[C@H](CC(=O)O)NC(=O)[C@H](CC(C)C)NC(=O)[C@](C)(CC(C)C)NC(=O)[C@@H](NC(=O)C(C)(C)NC(=O)[C@H](Cc1ccncc1)NC(=O)[C@H](CC(=O)O)NC(=O)[C@H](CO)NC(=O)[C@@H](NC(=O)[C@](C)(Cc1ccccc1F)NC(=O)[C@@H](NC(=O)CNC(=O)[C@H](CCC(=O)O)NC(=O)C(C)(C)NC(=O)[C@@H](N)Cc1ccc(O)cc1)[C@@H](C)O)[C@@H](C)O)[C@@H](C)CC)[C@@H](C)CC)C(=O)N[C@@H](CCCCNC(=O)COCCOCCNC(=O)COCCOCCNC(=O)CC[C@H](NC(=O)CCCCCCCCCOc1ccc(C(=O)O)cc1)C(=O)O)C(=O)NCC(=O)NCC(=O)N1CCC[C@H]1C(=O)N[C@@H](CO)C(=O)N[C@@H](CO)C(=O)NCC(=O)N[C@@H](C)C(=O)N1CCC[C@H]1C(=O)N1CCC[C@H]1C(=O)N1CCC[C@H]1C(=O)N[C@@H](CO)C(N)=O [Example 403]	0.0375	91.7	98.1	0.00939	> 9950	> 9950	0.175												
CC[C@H](C)[C@H](NC(=O)[C@H](CCCN)NC(=O)[C@H](CC(=O)O)NC(=O)[C@H](CC(C)C)NC(=O)[C@](C)(CC(C)C)NC(=O)[C@@H](NC(=O)C(C)(C)NC(=O)[C@H](Cc1ccc(O)cc1)NC(=O)[C@H](CC(=O)O)NC(=O)[C@H](CO)NC(=O)[C@@H](NC(=O)[C@](C)(Cc1ccccc1F)NC(=O)[C@@H](NC(=O)CNC(=O)[C@H](CCC(=O)O)NC(=O)C(C)(C)NC(=O)[C@@H](N)Cc1ccc(O)cc1)[C@@H](C)O)[C@@H](C)O)[C@@H](C)CC)C(=O)N[C@@H](C)C(=O)N[C@@H](CCC(N)=O)C(=O)NC(C)(C)C(=O)N[C@@H](CCCN)C(=O)N[C@@H](Cc1ccccc1)C(=O)N[C@H](C(=O)N[C@@H](CCCCNC(=O)COCCOCCNC(=O)COCCOCCNC(=O)COCCOCCNC(=O)CC[C@H](NC(=O)CCCCCCCCCOc1ccc(C(=O)O)cc1)C(=O)O)C(=O)N[C@@](C)(Cc1ccc(O)cc1)C(=O)N[C@@H](CC(C)C)C(=O)N[C@H](C(=O)N[C@@H](CCCCNC(=O)COCCOCCNC(=O)COCCOCCNC(=O)COCCOCCNC(=O)CC[C@H](NC(=O)CCCCCCCCCOc1ccc(C(=O)O)cc1)C(=O)O)C(=O)NCC(=O)NCC(=O)N1CCC[C@H]1C(=O)N[C@@H](CO)C(=O)N[C@@H](CO)C(=O)NCC(=O)N[C@@H](C)C(=O)N1CCC[C@H]1C(=O)N1CCC[C@H]1C(=O)N1CCC[C@H]1C(=O)N[C@@H](CO)C(N)=O)[C@@H](C)CC)[C@@H](C)CC [Example 481]	0.0266	82.7	97.9	0.0181	> 9950	> 9950	0.279	112	111	6.16									
CCCC[C@H](NC(=O)[C@H](CC(=O)O)NC(=O)[C@H](CO)NC(=O)[C@@H](NC(=O)[C@](C)(Cc1ccccc1F)NC(=O)[C@@H](NC(=O)CNC(=O)[C@H](CCC(=O)O)NC(=O)C(C)(C)NC(=O)[C@@H](N)Cc1ccc(O)cc1)[C@@H](C)O)[C@@H](C)O)C(=O)N[C@@H](CO)C(=O)N[C@H](C(=O)N[C@@](C)(CC(C)C)C(=O)N[C@@H](CC(C)C)C(=O)N[C@@H](CC(=O)O)C(=O)N[C@@H](CCCN)C(=O)N[C@@H](CCC(N)=O)C(=O)N[C@@H](C)C(=O)N[C@@H](CCC(N)=O)C(=O)NC(C)(C)C(=O)N[C@@H](CCCN)C(=O)N[C@@H](Cc1ccccc1)C(=O)N[C@H](C(=O)N[C@@H](CCCCNC(=O)COCCOCCNC(=O)COCCOCCNC(=O)CC[C@H](NC(=O)CCCCCCCCCCCCC(=O)O)C(=O)O)C(=O)N[C@@](C)(Cc1ccc(O)cc1)C(=O)N[C@@H](CC(C)C)C(=O)N[C@H](C(=O)N[C@@H](CCCCNC(=O)COCCOCCNC(=O)COCCOCCNC(=O)CC[C@H](NC(=O)CCCCCCCCCCCCC(=O)O)C(=O)O)C(=O)NCC(=O)NCC(=O)N1CCC[C@H]1C(=O)N[C@@H](CO)C(=O)N[C@@H](CO)C(=O)NCC(=O)N[C@@H](C)C(=O)N1CCC[C@H]1C(=O)N1CCC[C@H]1C(=O)N1CCC[C@H]1C(=O)N[C@@H](CO)C(N)=O)[C@@H](C)CC)[C@@H](C)CC)[C@@H](C)CC [Example 490]											0.0288	97.1	110	0.0122	0.976	> 9950	> 9950	115	0.143
